Laboratory results published in patent US8536202B2, “Triazole-substituted anthranilamides as pesticides” (Bayer Cropscience AG, priority 2010, dated 2013).
Like-named read-outs stand apart in the source and are kept apart here.

Tests used:
[1] = tested on: caterpillars of the armyworm (Spodoptera frugiperda); experiment: Spodoptera frugiperda test (SPODFR spray treatment); assay type: in vivo; details: 168 h, 100 g/ha, after 7 days, read-out: activity in %
Summary of the method: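 Percent caterpillar mortality read 7 days after infestation (0% none killed, 100% all killed). Treatment was a spray of the acetone/DMF/emulsifier formulation, water-diluted to test concentration, onto Zea mays leaf discs, allowed to dry before larvae were added.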

[2] = log P determination by HPLC on reversed-phase columns (EEC Directive 79/831 Annex V.A8); assay type: physicochemical; details: pH 2.7
Summary of the method: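 Calibration used unbranched alkan-2-ones of 3 to 16 carbons with known log P, values interpolated linearly from retention times between neighbouring standards. Acidic-range LC-MS run at pH 2.7, eluents aqueous and acetonitrile formic acid 0.1%, linear gradient 10% to 95% acetonitrile.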

[3] = tested on: larvae of the mustard beetle (Phaedon cochleariae); experiment: Phaedon test (PHAECO spray treatment); assay type: in vivo; details: 168 h, 100 g/ha, after 7 days, read-out: activity in %
Summary of the method: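 Mortality of mustard beetle larvae, expressed as percent killed (100% all, 0% none), assessed 7 days after spraying. Spray liquor made from compound in acetone plus dimethylformamide with alkylaryl polyglycol ether, diluted in emulsifier-containing water to the desired concentration.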

[4] = tested on: green peach aphid (Myzus persicae); experiment: Myzus test (MYZUPE spray treatment), Use Example 4; assay type: in vivo; details: 144 h, after 6 days; for pest or weed control at 100 g/ha: read-out: activity in %
Protocol: Solvents: 78 parts by weight of acetone • • 1.5 parts by weight of dimethylformamide
Emulsifier: 0.5 part by weight of alkylaryl polyglycol ether
An appropriate preparation of active compound is prepared by mixing 1 part by weight of active compound with the stated amounts of solvents and emulsifier and diluting the concentrate with emulsifier-containing water to the desired concentration.
Leaf discs of Chinese cabbage (Brassica pekinensis) infested by all stages of the green peach aphid (Myzus persicae) are sprayed with a preparation of active compound at the desired concentration.
After 6 days, the activity in % is ascertained. Here, 100% means that all of the aphids have been killed; 0% means that no aphids have been killed.

[5] = reversed-phase C18 HPLC column, HPLC on reversed-phase columns (C 18), EEC Directive 79/831 Annex V.A8, read-out: logP

SMILES	pest or weed control at 100 g/ha [1] [%]	chromatographic logP [2, 5]	pest or weed control at 100 g/ha [3] [%]	pest or weed control at 100 g/ha [4] [%]	chromatographic logP [2]	pest or weed control at 20 g/ha ([4]; 20 g/ha) [%]
CNC(=O)c1cc(C#N)cc(C)c1NC(=O)c1cc(Cn2cc(C(F)(F)F)nn2)nn1-c1ncccc1Br [Example 5]	100	2.66	100	100	–	–
Cc1cc(C#N)cc(C(=O)NC(C)C)c1NC(=O)c1cc(Cn2cc(C(F)(F)F)nn2)nn1-c1ncccc1Br [Example 6]	100	3.11	100	90	–	–
CCNC(=O)c1cc(C#N)cc(C)c1NC(=O)c1cc(Cn2cc(C(F)(F)F)nn2)nn1-c1ncccc1Br [Example 8]	100	2.88	100	80	–	–
CNC(=O)c1cc(C#N)cc(C)c1NC(=O)c1cc(Cn2ncc(C(F)(F)F)n2)nn1-c1ncccc1Br [Example 9]	100	2.33	100	100	–	–
Cc1cc(C#N)cc(C(=O)NC2CC2)c1NC(=O)c1cc(Cn2ncc(C(F)(F)F)n2)nn1-c1ncccc1Br [Example 11]	100	2.55	100	100	–	–
CCNC(=O)c1cc(C#N)cc(C)c1NC(=O)c1cc(Cn2ncc(C(F)(F)F)n2)nn1-c1ncccc1Br [Example 12]	100	2.53	100	100	–	–
CNC(=O)c1cc(Cl)cc(C)c1NC(=O)c1cc(Cn2ncc(C3CC3)n2)nn1-c1ncccc1Cl [Example 21]	100	–	100	100	2.85	–
Cc1cc(C#N)cc(C(=O)NC(C)(C)C)c1NC(=O)c1cc(Cn2cc(-c3ccc(F)cc3)nn2)nn1-c1ncccc1Cl [Example 53]	100	–	100	80	3.17	–
Cc1cc(C#N)cc(C(=O)NC(C)(C)C)c1NC(=O)c1cc(Cn2cc(-c3ccc(Cl)cc3)nn2)nn1-c1ncccc1Cl [Example 54]	100	–	100	80	3.54	–
CNC(=O)c1cc(C#N)cc(C)c1NC(=O)c1cc(Cn2nnc3cc(C(F)(F)F)ccc32)nn1-c1ncccc1Cl [Example 101]	100	–	100	100	2.76	–
Cc1cc(C#N)cc(C(=O)NC(C)(C)C)c1NC(=O)c1cc(Cn2nnc3c(Cl)cc(C(F)(F)F)cc32)nn1-c1ncccc1Cl [Example 110]	100	3.96	100	90	–	–
Cc1cc(Cl)cc(C(=O)NC2CC2)c1NC(=O)c1cc(Cn2nccn2)nn1-c1ncccc1Cl [Example 120]	100	–	100	90	2.26	–
Cc1cc(Cl)cc(C(=O)NC(C)(C)C)c1NC(=O)c1cc(Cn2nccn2)nn1-c1ncccc1Cl [Example 121]	100	–	100	100	2.87	–
Cc1cc(C#N)cc(C(N)=O)c1NC(=O)c1cc(Cn2ncc(C(F)(F)F)n2)nn1-c1ncccc1Cl [Example 123]	100	–	100	–	2.41	100
Cc1cc(C#N)cc(C(=O)NC(C)C2CC2)c1NC(=O)c1cc(Cn2ncc(C(F)(F)F)n2)nn1-c1ncccc1Cl (centres unmarked) [Example 125]	100	–	100	100	3.39	–
Cc1cc(C#N)cc(C(=O)NC2CC2)c1NC(=O)c1cc(Cn2ncc(C(F)(F)F)n2)nn1-c1ncccc1Cl [Example 126]	83	–	100	100	2.9	–
CCNC(=O)c1cc(C#N)cc(C)c1NC(=O)c1cc(Cn2ncc(C(F)(F)F)n2)nn1-c1ncccc1Cl [Example 127]	100	–	100	90	2.88	–
Cc1cc(C#N)cc(C(=O)NCC2CC2)c1NC(=O)c1cc(Cn2ncc(C(F)(F)F)n2)nn1-c1ncccc1Cl [Example 130]	100	–	100	100	3.17	–
Cc1cc(C#N)cc(C(=O)NC2CCC2)c1NC(=O)c1cc(Cn2ncc(C(F)(F)F)n2)nn1-c1ncccc1Cl [Example 131]	100	–	100	90	3.23	–
Cc1cc(C#N)cc(C(=O)NCC#N)c1NC(=O)c1cc(Cn2ncc(C(F)(F)F)n2)nn1-c1ncccc1Cl [Example 132]	100	–	100	100	2.76	–
CSC[C@H](C)NC(=O)c1cc(C#N)cc(C)c1NC(=O)c1cc(Cn2ncc(C(F)(F)F)n2)nn1-c1ncccc1Cl [Example 133]	100	–	100	90	3.33	–
Cc1cc(Cl)cc(C(=O)NC2CC2)c1NC(=O)c1cc(Cn2ncc(C(F)(F)F)n2)nn1-c1ncccc1Cl [Example 137]	100	–	100	100	3.18	–
Cc1cc(Cl)cc(C(=O)NC(C)C)c1NC(=O)c1cc(Cn2ncc(C(F)(F)F)n2)nn1-c1ncccc1Cl [Example 139]	100	–	100	90	3.48	–
Cc1cc(Cl)cc(C(=O)NCC#N)c1NC(=O)c1cc(Cn2ncc(C(F)(F)F)n2)nn1-c1ncccc1Cl [Example 143]	100	–	100	100	2.97	–
CSC[C@H](C)NC(=O)c1cc(Cl)cc(C)c1NC(=O)c1cc(Cn2ncc(C(F)(F)F)n2)nn1-c1ncccc1Cl [Example 144]	100	–	100	100	3.74	–
CNC(=O)c1cc(Cl)cc(Cl)c1NC(=O)c1cc(Cn2ncc(C(F)(F)F)n2)nn1-c1ncccc1Cl [Example 146]	100	–	100	100	2.98	–
Cc1cc(C#N)cc(C(=O)NC(C)C)c1NC(=O)c1cc(Cn2cc(C(F)(F)F)nn2)nn1-c1ncccc1Cl [Example 181]	100	–	–	90	2.67	–
Cc1cc(C#N)cc(C(=O)NC(C)C2CC2)c1NC(=O)c1cc(Cn2nc(C(F)(F)F)c(C(F)(F)F)n2)nn1-c1ncccc1Cl (centres unmarked) [Example 413]	100	4.11	100	–	–	–
